# Test results from patent US10676440B2, “Crystalline forms of an NK-1 antagonist” (Helsinn Healthcare SA, priority 2014, dated 2020).
# What was measured:
# [1] = system: rat plasma proteins; experiment: Binding to rat plasma proteins; type: in vitro ADME
# [2] = in vivo; settings: male, dog, in vivo, iv, 3 mg/kg, mean AUC(0-102 h)
# Description: In Example 10, the pharmacokinetics of the compound of Formula I in dogs following single intravenous and oral administration was evaluated and the oral bioavailability of five different salts of the compound of Formula I was compared. The compound of Formula I was administered to dogs as described in Table 12. The doses are expressed in mg of free base.
# The experiments were performed in 15 male dogs (bodyweight 11-18 kg) from RCC Ltd., Biotechnology and Animal Breeding Division, Wolferstrasse 4, CH-4414, Fullinsdorf, Switzerland. The animals were housed under standard laboratory conditions throughout the study period.
# For the pharmacokinetic studies, 1 mL blood samples were collected from the cephalic vein of the dogs via catheter at 15, 30 min and at 1, 2, 3, 4, 6, 8, 24, 32, 48, 56, 72, 80, 96, and 100 (or 104) hours following oral dosing. After intravenous administration, blood samples were collected at 5, 15, 30 min and 1, 2, 3, 4, 6, 8, 24, 32, 48, 56, 75, 102, 120, 128, 144, 152, 168, 176, 192, and 200 hours. Collection tubes contained EDTA/NaF as anticoagulant and stabilizer. After centrifugation, plasma was removed and stored deep frozen at approximately −20° C. until analysis using a specific LC-MS method.
# Aliquots of 40 μL plasma were mixed with 50 μL buffer at pH 5, 50 μL internal standard of Formula I (1 μg/mL in 1-chlorobutane) and 250 μL butylacetate and then shaken for 10 min. After centrifugation, 200 μL of the supernatant were evaporated to dryness at 45° C. under a stream of nitrogen. The residue was reconstituted with 200 μL acetonitrile/1% formic acid in water (30/70, v/v). Aliquots of 30 μL were injected onto the analytical column (Waters, Symmetry C8, 2.1×150 mm, 5 μm).
# Separation occurred by gradient elution using a solvent A (acetonitrile) and solvent B (1% formic acid in water). The flow rate was 0.3 mL/min and the gradient elution was: […]
# The sample passed to the ion-spray interface of the single quadrupole mass spectrometer. Selected ion monitoring mode (SIM) was used for mass spectrometric detection. Quantification was based on peak area ratios and calibration curve established between 2 and 5000 ng/mL.
# To a 100 μL sample aliquot were added 200 μL of a mixture of acetonitrile/ethanol containing the deuterated internal standard, to precipitate plasma proteins. After vortex mixing and centrifugation, aliquots of the supernatants were transferred to 96-deel-well plates and injected for analysis (5 μL). Following enrichment and cleanup on the trapping column, the analyte was eluted and separated by gradient elution on a 2.1*30 mm analytical column (XTerra MS C18). The effluent from the analytical column was passed to the turbo ion spray vie a divert valve.
# Calibration standards were prepared in dog plasma. The calibration range was from 10-5000 ng/mL. In each analytical series, a set of calibration standards was worked up and run with the unknowns. Calibration was then performed by computing a weighted (1/X^2) least-squares linear regression line of the measured peak area ratios (Y) (analyte to internal standard) versus the spiked concentrations (X). The drug concentrations of the unknown samples were then calculated from this regression line (UNICHROM). The performance of the analytical procedure during sample analysis was monitored. With each analytical series, quality control (QC) samples in dog plasma, spiked with known amounts of the analyte, were run together with the study samples.
# The pharmacokinetic parameters were estimated by non-compartmental analysis, using the pharmacokinetic evaluation program WinNOnlin [1]. AUC(0-inf.) was calculated applying the linear trapezoidal rule and extrapolation to infinity using the apparent elimination rate constant kz and the calculated concentration at the last measurable time point. AUClast values were calculated by linear trapezoidal rule from time zero to time of last measureable time point.
smiles,measurement,setting,value
"Cc1ccccc1-c1cc(N2CCN(C)CC2)ncc1N(C)C(=O)C(C)(C)c1cc(C(F)(F)F)cc(C(F)(F)F)c1 [Formula I, 2-(3,5-bis(trifluoromethyl)phenyl)-N,2-dimethyl-N-(6-(4-methylpiperazin-1-yl)-4-(o-tolyl)pyridin-3-yl)propanamide]",binding to rat plasma proteins,[1],99.8%
same,AUC(0-t),[2],11800 ng·h/mL
